Series [1] relates to red blood cells. The experiment in a line: Hemolysis analysis of mouse red blood cells. The settings on record: 37° C., 1 hour, absorption 492 nm. It counts as cell-based. The method, then: In addition, for hemolysis analysis, a blood sample was obtained from the heart of the mouse anesthetized with isoflurane, and then centrifuged at 4° C. (3000 rpm, 3 min) with cold 1×PBS (1 mL, 3 times) to collect red blood cells. The purified red blood cells were treated with 100 μL of 8% (v/v) each of PBS and the C2 compound and further incubated at 37° C. for 1 hour. The mixture was then collected using centrifugation at 4° C.

Series [2] relates to B16F10 (mouse murine melanoma cell line) cells. The method, then: Specifically, B16F10 (mouse murine melanoma cell line) cells were transplanted into the left or right thigh (subcutaneously) of the mouse (6-week-old female Balb/c nude) on day 0 to induce melanoma tumor, and then after 10 days later (tumor size=about 200 mm^3), melanoma model mice were divided into 3 groups (5 mice per group), and each group was administered with 100 μL of PBS, SN-38 (3 mM), or C2+SN-38 (C2 compound encapsulated with SN-38 anticancer agent) by topical application on days 10, 12, 13, and 14 ((a) of FIG. 27). In order to determine toxicity and therapeutic effects in melanoma model mice for 16 days, changes in body weight and tumor volume were measured every 2 to 3 days. At the end of the experiment (day 15), the body of each mouse was photographed with a digital camera to determine the shape and size of the tumor, and at the end of the experiment (day 16), the tumor was extracted from the mouse. The extracted tumor tissue (harvested tumor) was photographed with a digital camera, and the size and volume thereof were measured. In addition, for hemolysis analysis, red blood cells purified from the blood sample obtained from the mouse heart were treated with 100 μL of PBS (negative control), SN-38 (3 mM), C2+SN-38, and Triton-X (0.1% (v/v); positive control) at 8% (v/v), respectively, and further incubated at 37° C. for 1 hour, and then the mixture was centrifuged at 4° C. (3000 rpm, 3 min) and the UV/vis absorption peak (492 nm) of the final obtained supernatant was measured at 25° C.

Series [3] concerns mice. Briefly: Biocompatibility / immunotoxicity in mice (application behind the ears). The settings on record: mouse, in vivo. Here is the method: Specifically, 25 μL each of phosphate-buffered saline (PBS) as a negative control, eugenol (Eug) inducing immunotoxicity as a positive control, and a C2 compound in the PDDS series were applied behind the ears of mice for 3 days, and after 6 days, the change in body weight, the feed intake and water intake, the weight of auricular lymph nodes, the number of lymph node cells, the stimulation index, and the concentrations of histamine and immunoglobulin E in the blood were measured.

The nature of series [4]: Water contact angle on coated slide glass. It counts as physicochemical. The settings on record: distilled water on coated slide glass. The method, then: Specifically, a monomer and PDDS series compounds were applied onto a slide glass from Marienfeld using a 100 μL pipette, respectively, and then the monomer and the PDDS series were uniformly coated on the slide glass while the slide glass was tilted left and right. The monomer and the PDDS series were coated for about 1 hour in a fume hood, and then 100 μL each of the monomer and PDDS series were dropped again, and coated without an empty portion of the slide glass by repeating the process two more times. Thereafter, distilled water was dropped on the surface of the coated glass slide using a contact angle meter from Kruss and the contact angles were analyzed.

Series [5] concerns skin of mouse. The experiment in a line: Skin penetration efficiency, fluorescence of oil red O in skin sections. It is filed as in vivo. Here is the method: Specifically, 100 μL each of oil red O-loaded C2 compound (C2; […]) and oil red O (OR; 100 μL, stock solution: 24 μM in PBS (1% ethanol)) were applied to the skin, and after 24 and 48 hours, the skin tissue was sectioned, and then the fluorescence of oil red O was tracked (excitation: 559 nm, detection: 636±20 nm) using a fluorescence microscope, and quantified and plotted using the Image-J program.
Here, (b, c) of FIG. 25 and (e, f) of FIG. 25 show the fluorescence intensity plot of Oil red O or the C2 compound (C2) loaded with Oil red O along the yellow dotted line in the images of (a) of FIG. 25 and (d) of FIG. 25, respectively.

4 molecules from patent publication US20240301141A1, “SILICONE POLYMER COMPOUND AND TRANSDERMAL DELIVERY SYSTEM COMPRISING SAME” (UNIVERSITY-INDUSTRY COOPERATION GROUP OF KYUNG HEE …, priority 2021, published 2024) can be followed below.

Regarding `CCc1c2c(nc3ccc(O)cc13)-c1cc3c(c(=O)n1C2)COC(=O)[C@]3(O)CC` [SN-38, 7-ethyl-10-hydroxycamptothecin], in series [1], the “hemolysis rate in red blood cells” value is listed as “severe hemolysis”. Moreover, the “change in body weight” value in series [2] (melanoma xenograft mouse, topical on days 10, 12, 13, 14) is reported as “no significant change”. Moreover, in series [2] (tumor extracted day 16), the “average tumor volume of extracted tumor” value is 1689±498.6 mm^3 and the “tumor growth / tumor size of extracted tumor tissue” value is “only slightly reduced tumor growth”.
With `C=CCc1ccc(O)c(OC)c1` [eugenol], in series [3], the “feed intake and water intake” value was “took less feed and water”; the “number of lymph node cells (BrdU assay)” value is reported as “statistically significant increase”; the stimulation index result is “statistically significant increase”.
`C[Si]1(C)CC[Si](C)(C)O1` [monomer, 2,2,5,5-tetramethyl-2,5-disila-1-oxacyclopentane] yielded a Contact angle in series [4] of 69.0±1.2 °.
As for `Cc1ccc(C)c(N=Nc2cc(C)c(N=Nc3c(O)ccc4ccccc34)cc2C)c1` [oil red O], the “absorption of oil red O in skin tissue (fluorescence)” value in series [5] (24 hours after application) and in series [5] (48 hours after application) was “hardly absorbed into the subcutaneous tissue” each time.
